These results are taken from paper PMC10661773, “Cytotoxic pathways activated by multifunctional thiosemicarbazones targeting sigma-2 receptors in breast and lung carcinoma cells” (Pharmacological Reports, 2023).

Usually Ki stands for a dissociation constant, usually derived from enzyme kinetics or from competition with a known ligand. In general, EC50 refers to the concentration that produces a half-maximal response.

The target in one experiment is sigma-2 receptors (Homo sapiens, UniProt Q5BJF2). Conditions: read-out: Sigma-2 Affinity Ki; cited from earlier work.
Sequence of sigma-2 receptors (Q5BJF2 whole entry): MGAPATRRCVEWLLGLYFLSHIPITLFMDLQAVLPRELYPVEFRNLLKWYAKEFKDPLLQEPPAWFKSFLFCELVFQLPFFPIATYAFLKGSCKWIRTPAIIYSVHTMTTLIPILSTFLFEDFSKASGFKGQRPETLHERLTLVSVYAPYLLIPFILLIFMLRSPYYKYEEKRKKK
The next experiment concerns caspase 3 in MCF7 cells. Nature of the experiment: Caspase 3 activity, fluorimetric. It is filed as cell-based, human. To be noted: MCF7, 2 h, 50 µM. The method, then:
(§1) Activation of caspase 3, caspase 7 and caspase 9 was measured using the Caspase 3/7 Fluorescence Assay kit (Cayman Chemical, Ann Arbor, MI; #10,009,135) and the Caspase 9 fluorimetric assay kit (Enzo Life Science, Roma, Italy; #ALX-850-224). The results were expressed as nmoles of the hydrolyzed substrate of each caspase/mg cellular proteins, according to a previously set titration curve.

In a further experiment the test system is caspase 3 in A549 cells. Nature of the experiment: Caspase 3 activity, fluorimetric. The format is cell-based, human. To be noted: A549, 2 h, 50 µM. The method, then:
as §1

Experiment [1] relates to GRP78, ATF6, IRE1, PERK in A549 cells. Nature of the experiment: ER stress markers, qRT-PCR and immunoblotting. It is filed as cell-based, human. Conditions: A549, 2 h, 50 µM. The method, then: (§2) 1 μg total RNA was reverse-transcribed using the iScript Reverse Transcription Supermix kit (Bio-Rad Laboratories, Hercules, CA; #1,708,840), according to the manufacturer’s instruction. 25 ng cDNA were amplified with 10 μL IQ™ SYBR Green Supermix (Bio-Rad Laboratories, # 1708880B05). Primers were designed with the qPrimer Depot software (http://primerdepot.nci.nih.gov/). qRT-PCR was carried out with a CFX96™ Real-Time Detector System (Bio-Rad Laboratories). Cycling conditions were: 30 s at 95 °C, followed by 40 cycles of denaturation (15 s at 95 °C), annealing/extension (30 s at 60 °C). The same cDNA preparation was used to quantify the genes of interest and the housekeeping gene S14, used to normalize gene expression. The relative quantitation of each sample was carried out using the Gene Expression Quantitation software (Bio-Rad Laboratories). Results were expressed in arbitrary units. For each gene, the expression in untreated cells was assumed to be “1”.
(§3) Cells were rinsed with ice-cold lysis buffer (50 mM, Tris, 10 mM EDTA, 1% v/v Triton-X100), supplemented with the protease inhibitor cocktail set III (80 μM aprotinin, 5 mM bestatin, 1.5 mM leupeptin, 1 mM pepstatin; Sigma, # 535,140), 2 mM phenylmethylsulfonyl fluoride (Sigma: #P7626) and 1 mM Na3VO4, (Sigma; #S6508) then sonicated and centrifuged at 13,000 × g for 10 min at 4 °C. 20 μg protein extracts were subjected to SDS–PAGE and probed with the antibodies for: GRP78 (#ab21685), ATF6 (#ab122897), IRE-1 (#ab37073), PERK (#ab65142), actin (#ab1801) (all from Abcam, Cambridge, UK), followed by a peroxidase-conjugated secondary antibody (Bio-Rad Laboratories). The membranes were washed with Tris-buffered saline-Tween 0.1% v/v solution, and the proteins were detected by enhanced chemiluminescence (Bio-Rad Laboratories, #1,705,061). The densitometric analysis was performed using the ImageJ software (https://imagej.nih.gov/), calculating the ratio protein of interest/actin band density, putting actin band density as 1 relative unit in each condition. Densitometric analysis and whole blots are included as Supporting Information.
Background: Real-time PCR tracks product formation cycle by cycle.

Experiment [2] deals with GRP78, ATF6, IRE1, PERK in MCF7 cells. The experiment can be described thus: ER stress markers, qRT-PCR and immunoblotting. The format is cell-based, human. Conditions: MCF7, 2 h, 50 µM. The method, then: as §2, §3
The next experiment deals with MCF7 and A549 cell lines. The experiment can be described thus: Cytotoxic activity across the two tumor cell lines (MTT). The format is cell-based. Conditions: Homo sapiens; MCF7 and A549, MTT 48 h; read-out: EC50 range in the two tumor cell lines. The method, then:
Human MCF7 breast adenocarcinoma (#HTB-22) and human A549 carcinoma (#CCL-85) cell lines, non-tumor human breast (MCF10A, #CRL-10317) and lung (BEAS-2B, #CRL-9482) cells were obtained from American Type Culture Collection (ATCC, Bethesda, MD). MCF7 cells were cultured in DMEM medium (Gibco Thermo Scientific, Waltham, MA; #10,565,018), A549 in HAM’s F12 medium (Gibco Thermo Scientific; #11,765,054), and BEAS-2B in RPMI-1640 medium (Gibco Thermo Scientific; # 61,870,010), all supplemented with 10% v/v fetal bovine serum (FBS; Sigma, St. Louis, MO; #F4135) and 1% v/v penicillin–streptomycin (Sigma; #P4458). MCF10A cells were cultured in DMEM/F12 medium (Gibco Thermo Scientific; #31,331,028) supplemented with 5% v/v horse serum (Sigma; #H1270) and 1% v/v penicillin–streptomycin, 20 ng/mL epidermal growth factor (Sigma, #E4127), 10 µg/mL insulin (Sigma, #I3536), […] hydrocortisone (Sigma, #H0888), 100 ng/mL cholera toxin (Sigma, #C8052). Cells were kept in a humidified incubator at 37 °C with 5% CO2.
Cell growth was determined using the MTT assay at 48 h. On day 1, 25,000 cells/well were seeded into 96-well plates in a volume of 100 μL. […] Formazan crystals were solubilized using 100 μl of DMSO/EtOH (1:1) and absorbance values at 570 and 630 nm were determined on the microplate reader Victor 3 from PerkinElmer Life Sciences (Waltham, MA).

For a further experiment, the system named is caspase 7 in MCF7 cells. The experiment can be described thus: Caspase 7 activity, fluorimetric. It is filed as cell-based, human. To be noted: MCF7, 2 h, 50 µM. The method, then: as §1
Another experiment relates to caspase 7 in A549 cells. Nature of the experiment: Caspase 7 activity, fluorimetric. Conditions: A549, 2 h, 50 µM. The format is cell-based, human. The method, then:
as §1

`CN(C)C(=S)N/N=C1\C(=O)N(CCCCN2CCC3(CC2)OCc2ccccc23)c2ccccc21` [FA4, (Z)-2-(1-(4-(3H-spiro[isobenzofuran-1,4′-piperidine]-1′-yl)butyl)-2-oxoindolin-3-ylidene)-N,N-dimethylhydrazinecarbothioamide]: the Ki on sigma-2 receptors is 15.8 nM. Moreover, the “Caspase 3 activation” value with caspase 3 in MCF7 cells and in the experiment with caspase 3 in A549 cells was “most potent inducer of caspase 3 in both cell lines” throughout. The “Expression of ER stress markers GRP78, ATF6, IRE1, PERK” value in experiment [1] and in experiment [2] was “increased” throughout. The EC50 in the experiment on MCF7 and A549 cell lines is 1530 to 1840 nM. Also, the “Caspase 7 activation” value in the experiment with caspase 7 in MCF7 cells and with caspase 7 in A549 cells was “activate” throughout.
